The subject of the assay is Chlorella sp. In words: Algal efficacy testing of dry paint film coupons (modified ASTM 5589, 6-well plates). Format: cell-based, Chlorella sp. ATCC 7516. The settings on record: for Total conc, ppm (concentration giving pass level ≥ 75% inhibition): total active ingredient in acrylic/silicone paint, dry film coupon, used as minimum inhibitory concentration for SI. How it is done:
These paints were then diluted with a biocide free acrylic/silicone based paint and mixed to prepare targeted concentrations of biocide combinations for the testing. The total biocides concentrations obtained were 125, 250, 500, 1000, 2000 and 5000 ppm. After biocides addition or dilution, the paints were mixed 90 seconds with the horse power shaker (AXEL 75M3372/Agitateur SO-10MI) until uniformity was achieved. […] After one day, the paints were applied to Schleicher & Schuell filter paper at 280 μm wet film thickness and dried for 3 days at room temperature avoiding direct exposure to sunlight. Square discs (1.8 cm×1.8 cm) were cut out from each panel and were used as the substrate for algal efficacy tests. This sample size allowed for an agar border when the sample disc was placed into the well of the test plate.
Algal efficacy was tested according to modified ASTM 5589 which is a standard accelerated test method for determining resistance of various coatings (including paints) to algal defacement. To accommodate for high-throughput screening, this method was scaled down from petri plates to 6-well plates. Bold Modified Basal Freshwater Nutrient Solution was used as growth medium for the algal culture and Bold's agar was used for the efficacy testing. A single coupon was placed with a pair of sterile forceps at the center of the agar plug (on top) with the painted surface facing upwards. The algal inoculum was prepared by diluting an exponentially growing culture of Chlorella sp. to 1×10^6 cfu/ml.
Each well that contains a tested coupon was inoculated with 1750 μl of algal suspension (1×10^6 cfu/ml) making sure that the whole surface (paint film as well as the agar surrounding it) was evenly covered. The plates were incubated at room temp (21° C.-25° C.) with cyclic exposure to 14 hours fluorescent light followed by 10 hours darkness, for a period of three weeks.
At the end of the incubation period the samples were scored for percent inhibition regarding color intensity compared to the blank sample
The SI is calculated based on F. C. Kull et.
SI=Qa/QA+Qb/QB • Qa=the concentration of Antimicrobial A in the blend • QA=the concentration of Antimicrobial A as the only biocide • Qb=the concentration of Antimicrobial B in the blend • QB=the concentration of Antimicrobial B as the only antimicrobial
SI value of <1 in the formula indicates a synergism of the blended biocides exists.
The minimal targeted inhibition was set at 75%, meaning a coupon with at least 75% algal growth inhibition was considered as a pass.

Molecules are shown by their SMILES.

Consider `O=c1[nH]c2c(c(=O)n1C1CCCCC1)CCC2` [Lenacil, 3-Cyclohexyl-6,7-dihydro-1H-cyclopentapyrimidine-2,4-(3H,5H)-dione], for which the inhibition at 1000 ppm (504 h) came out at 90%. Besides, the “Total conc, ppm (concentration giving pass level ≥ 75% inhibition)” value (three weeks) is given as 1,000 ppm.

Consider `c1ccc2[nH]c(-c3cscn3)nc2c1` [Thiabendazole, 4-(1H-1,3-benzodiazol-2-yl)-1,3-thiazole], for which the inhibition at 10000 ppm (504 h, total conc 10000 ppm in paint, three weeks, color intensity vs blank) stood at 75%. For the same compound, the “Total conc, ppm (concentration giving pass level ≥ 75% inhibition)” value (three weeks) is recorded as 10000 ppm.

For the origin of these results see patent US20190116792A1 (Dow Global Technologies LLC, priority 2016, published 2019).
